Assay results from patent publication US10150740B2, “6,7-dihydropyrido[2,1-A]phthalazin-2-ones for the treatment and prophylaxis of hepatitis B virus infection” (priority 2015, dated 2018).
Structures can show the parent of a compound that is named as a salt.

System: HBsAg
Assay: cells
Settings: Hepatitis B virus, HepG2.2.15, read-out: IC50 (HBsAg secretion)
Procedure: HepG2.2.15 cells (Acs et al. Proc Natl Acad Sci USA, 84, (1987), 4641-4), a constitutively HBV-expressing cell line were cultured in DMEM+Glutamax-I medium (Invitrogen, Carlsbad, Calif., USA), supplemented with 10% fetal bovine serum (Invitrogen) and G418 (Invitrogen) at a final concentration of 200 mg/L and maintained in 5% CO2 at 37° C.
HepG2.2.15 cells were seeded in duplicate into white, 96-well plates at 1.5×10^4 cells/well. The cells were treated with a three-fold serial dilution series of the compounds in DMSO. The final DMSO concentration in all wells was 1% and DMSO was used as no drug control.
The HBsAg chemiluminescence immunoassay (CLIA) kit (Autobio Diagnostics Co., Zhengzhou, China, Catalog number: CL0310-2) was used to measure the levels of secreted HBV antigens semi-quantitatively. For the detection 50 μL/well culture supernatant was used and HBsAg was quantified using HBsAg chemiluminescence immunoassay (CLIA) kit (Autobio Diagnostics Co., Zhengzhou, China, Catalog number: CL0310-2), 50 μL of the supernatant was transferred to the CLIA assay plate and 50 μL of enzyme conjugate reagent was added into each well. The plates were sealed and gently agitated for 1 hour at room temperature. The supernatant-enzyme-mixture was discarded and wells were washed 6 times with 300 μL of PBS. The residual liquid was removed by plating the CLIA plate right side down on absorbent tissue paper. 25 μL of substrates A and B were added to each well. Luminance was measured using a luminometer (Mithras LB 940 Multimode Microplate Reader) after 10 minutes incubation. Dose-response curves were generated and the IC50 value was extrapolated by using the E-WorkBook Suite (ID Business Solutions Ltd., Guildford, UK). The IC50 was defined as the compound concentration (or conditioned media log dilution) at which HBsAg secretion was reduced by 50% compared to the no drug control.

| Structure (SMILES) | IC50 |
| --- | --- |
| COc1cc2c(cc1OC)-c1cc(=O)c(C(=O)O)cn1NC2 [Example 1, 9,10-Dimethoxy-2-oxo-6,7-dihydropyrido[2,1-a]phthalazine-3-carboxylic acid] | 18700 nM |
| COc1cc2c(cc1OC)-c1cc(=O)c(C(=O)O)cn1N(C)C2 [Example 2, 9,10-Dimethoxy-6-methyl-2-oxo-7H-pyrido[2,1-a]phthalazine-3-carboxylic acid] | 2530 nM |
| C=CCN1Cc2cc(OC)c(OC)cc2-c2cc(=O)c(C(=O)O)cn21 [Example 3, 6-Allyl-9,10-dimethoxy-2-oxo-7H-pyrido[2,1-a]phthalazine-3-carboxylic acid] | 740 nM |
| COc1cc2c(cc1OC)-c1cc(=O)c(C(=O)O)cn1N(C(C)C)C2 [Example 4, 6-Isopropyl-9,10-dimethoxy-2-oxo-7H-pyrido[2,1-a]phthalazine-3-carboxylic acid] | 26100 nM |
| COc1cc2c(cc1OC)-c1cc(=O)c(C(=O)O)cn1N(CC(C)C)C2 [Example 5, 6-Isobutyl-9,10-dimethoxy-2-oxo-7H-pyrido[2,1-a]phthalazine-3-carboxylic acid] | 248 nM |
| COCCCOc1cc2c(cc1OC)-c1cc(=O)c(C(=O)O)cn1N(CC(C)C)C2 [Example 6, 6-Isobutyl-10-methoxy-9-(3-methoxypropoxy)-2-oxo-7H-pyrido[2,1-a]phthalazine-3-carboxylic acid] | 53 nM |
| COc1cc2c(cc1OCC(F)(F)F)CN(CC(C)C)n1cc(C(=O)O)c(=O)cc1-2 [Example 7, 6-Isobutyl-10-methoxy-2-oxo-9-(2,2,2-trifluoroethoxy)-7H-pyrido[2,1-a]phthalazine-3-carboxylic acid] | 172 nM |
| COc1cc2c(cc1OCC1CCOCC1)CN(CC(C)C)n1cc(C(=O)O)c(=O)cc1-2 [Example 8, 6-Isobutyl-10-methoxy-2-oxo-9-(tetrahydropyran-4-ylmethoxy)-7H-pyrido[2,1-a]phthalazine-3-carboxylic acid] | 44 nM |
| COc1cc2c(cc1OCCCS(C)(=O)=O)CN(CC(C)C)n1cc(C(=O)O)c(=O)cc1-2 [Example 9, 6-Isobutyl-10-methoxy-9-(3-methylsulfonylpropoxy)-2-oxo-7H-pyrido[2,1-a]phthalazine-3-carboxylic acid] | 624 nM |
| COc1cc2c(cc1OCCN1CCOCC1)CN(CC(C)C)n1cc(C(=O)O)c(=O)cc1-2 [Example 10, 6-Isobutyl-10-methoxy-9-(2-morpholinoethoxy)-2-oxo-7H-pyrido[2,1-a]phthalazine-3-carboxylic acid] | 225 nM |
| COc1cc2c(cc1OCC(C)(C)CO)CN(CC(C)C)n1cc(C(=O)O)c(=O)cc1-2 [Example 11, 9-(3-Hydroxy-2,2-dimethyl-propoxy)-6-isobutyl-10-methoxy-2-oxo-7H-pyrido[2,1-a]phthalazine-3-carboxylic acid] | 39 nM |
| COc1cc2c(cc1OCCCCC(=O)O)CN(CC(C)C)n1cc(C(=O)O)c(=O)cc1-2 [Example 12, 9-(4-Carboxybutoxy)-6-isobutyl-10-methoxy-2-oxo-7H-pyrido[2,1-a]phthalazine-3-carboxylic acid] | 9430 nM |
| COc1cc2c(cc1OCCCC#N)CN(CC(C)C)n1cc(C(=O)O)c(=O)cc1-2 [Example 13, 9-(3-Cyanopropoxy)-6-isobutyl-10-methoxy-2-oxo-7H-pyrido[2,1-a]phthalazine-3-carboxylic acid] | 110 nM |
| COc1cc2c(cc1OCCCCCNC(=O)OC(C)(C)C)CN(CC(C)C)n1cc(C(=O)O)c(=O)cc1-2 [Example 14, 9-[5-(Tert-butoxycarbonylamino)pentoxy]-6-isobutyl-10-methoxy-2-oxo-7H-pyrido[2,1-a]phthalazine-3-carboxylic acid] | 47 nM |
| COc1cc2c(cc1OCCCCCN)CN(CC(C)C)n1cc(C(=O)O)c(=O)cc1-2 [Example 15, 9-(5-Aminopentoxy)-6-isobutyl-10-methoxy-2-oxo-7H-pyrido[2,1-a]phthalazine-3-carboxylic acid hydrochloride] | 500 nM |
